# Laboratory results from ChEMBL document CHEMBL1137071, “Phenyl thiazolyl urea and carbamate derivatives as new inhibitors of bacterial cell-wall biosynthesis” (Bioorg Med Chem Lett, 2004).
# Key:
# Assay type in all cases: functional
# [1] = tested on: Enterococcus faecalis; assay: Antimicrobial activity against Enterococcus faecalis GC 2242 (VRE)
# [2] = tested on: Escherichia coli; assay: Antimicrobial activity against Escherichia coli GC 4559
# [3] = tested on: Escherichia coli; assay: Antimicrobial activity against Escherichia coli GC 4560
# [4] = tested on: Enterococcus faecalis; assay: Antimicrobial activity against Enterococcus faecalis GC 4555 (ATCC)
# [5] = Inhibitory activity against MurA from Escherichia coli
# [6] = Inhibitory activity against MurB from Escherichia coli
# [7] = Inhibitory activity against MurB from Staphylococcus aureus
# [8] = Antimicrobial activity against MSCNS (methicillin-susceptible coagulase-negative staphylococci) GC 646; conditions: Staphylococcus
# [9] = tested on: Staphylococcus aureus; assay: Antimicrobial activity against Staphylococcus aureus GC 1131 (MRSA)
# [10] = tested on: Staphylococcus aureus; assay: Antimicrobial activity against Staphylococcus aureus GC 2216 (ATCC)
# [11] = tested on: Staphylococcus aureus; assay: Antimicrobial activity against Staphylococcus aureus GC 4543 (MSSA)
# [12] = tested on: Streptococcus pneumoniae; assay: Antimicrobial activity against Streptococcus pneumoniae GC1894 (PRSP) in the presence of 4% bovine serum albumin
# [13] = tested on: Streptococcus pneumoniae; assay: Antimicrobial activity against Streptococcus pneumoniae GC1894 (PRSP)
# [14] = tested on: Enterococcus faecalis; assay: Antimicrobial activity against Enterococcus faecalis GC 2242 (VRE); Not active; 0.5-8
# [15] = tested on: Escherichia coli; assay: Antimicrobial activity against Escherichia coli GC 4559; Not active; 0.5-8
# [16] = tested on: Escherichia coli; assay: Antimicrobial activity against Escherichia coli GC 4560; Not active; 0.5-8
# [17] = tested on: Enterococcus faecalis; assay: Antimicrobial activity against Enterococcus faecalis GC 4555 (ATCC); Not active; 0.5-8
# [18] = Inhibitory activity against MurB
# [19] = tested on: Staphylococcus aureus; assay: Antimicrobial activity against Staphylococcus aureus GC 1131 (MRSA); Not active; 0.5-8
# [20] = tested on: Staphylococcus aureus; assay: Antimicrobial activity against Staphylococcus aureus GC 2216 (ATCC); Not active; 0.5-8
# [21] = tested on: Staphylococcus; assay: Antimicrobial activity against MSCNS (methicillin-susceptible coagulase-negative staphylococci) GC 646; Not active; 0.5-8
# [22] = tested on: Staphylococcus aureus; assay: Antimicrobial activity against Staphylococcus aureus GC 4543 (MSSA); Not active; 0.5-8
# [23] = tested on: Streptococcus pneumoniae; assay: Antimicrobial activity against Streptococcus pneumoniae GC1894 (PRSP) in the presence of 4% bovine serum albumin; Not active; 0.5-8
# [24] = tested on: Streptococcus pneumoniae; assay: Antimicrobial activity against Streptococcus pneumoniae GC1894 (PRSP); Not active; 0.5-8
# [25] = tested on: Enterococcus faecalis; assay: Antimicrobial activity against Enterococcus faecalis GC 2242 (VRE); Not active; 1-4
# [26] = tested on: Escherichia coli; assay: Antimicrobial activity against Escherichia coli GC 4559; Not active; 1-4
# [27] = tested on: Escherichia coli; assay: Antimicrobial activity against Escherichia coli GC 4560; Not active; 1-4
# [28] = tested on: Enterococcus faecalis; assay: Antimicrobial activity against Enterococcus faecalis GC 4555 (ATCC); Not active; 1-4
# [29] = tested on: Staphylococcus aureus; assay: Antimicrobial activity against Staphylococcus aureus GC 1131 (MRSA); Not active; 1-4
# [30] = tested on: Staphylococcus; assay: Antimicrobial activity against MSCNS (methicillin-susceptible coagulase-negative staphylococci) GC 646; Not active; 1-4
# [31] = tested on: Staphylococcus aureus; assay: Antimicrobial activity against Staphylococcus aureus GC 2216 (ATCC); Not active; 1-4
# [32] = tested on: Streptococcus pneumoniae; assay: Antimicrobial activity against Streptococcus pneumoniae GC1894 (PRSP) in the presence of 4% bovine serum albumin; Not active; 1-4
# [33] = tested on: Streptococcus pneumoniae; assay: Antimicrobial activity against Streptococcus pneumoniae GC1894 (PRSP); Not active; 1-4
# [34] = tested on: Staphylococcus aureus; assay: Antimicrobial activity against Staphylococcus aureus GC 4543 (MSSA); Not active; 1-4
Compound,MIC [1] [µg/mL],MIC [2] [µg/mL],MIC [3] [µg/mL],MIC [4] [µg/mL],IC50 [5] [µg/mL],IC50 [6] [µg/mL],IC50 [7] [µg/mL],MIC [8] [µg/mL],MIC [9] [µg/mL],MIC [10] [µg/mL],MIC [11] [µg/mL],MIC [12] [µg/mL],MIC [13] [µg/mL],also measured
O=C(Nc1ccc(Cl)c(Cl)c1)Nc1ncc([N+](=O)[O-])s1,1,> 128,2,1,4.6,3.8,3,0.5,1,0.25,0.5,128,0.25,–
O=C(Nc1ccc(Cl)c(Cl)c1)Nc1nccs1,4,> 128,0.5,4,20,> 25,> 25,2,2,2,2,> 128,0.5,–
N#Cc1cnc(NC(=O)OCc2ccc(Cl)c(Cl)c2)s1,64,> 128,> 128,64,> 25,> 25,24,> 128,> 128,> 128,> 128,> 128,128,–
O=C(Nc1ccc(Cl)c(Cl)c1)Nc1ccccn1,–,–,–,–,–,–,–,–,–,–,–,–,–,MIC [14]: 8 µg/mL; MIC [15]: 8 µg/mL; MIC [16]: 8 µg/mL; MIC [17]: 8 µg/mL; IC50 [18]: 17 µg/mL; MIC [19]: 8 µg/mL; MIC [20]: 8 µg/mL; MIC [21]: 8 µg/mL; MIC [22]: 8 µg/mL; MIC [23]: 8 µg/mL; MIC [24]: 8 µg/mL
N#Cc1sc(NC(=O)Nc2ccc(Cl)c(Cl)c2)nc1Cl,0.25,> 128,0.5,0.5,> 25,> 25,> 25,0.5,0.5,0.25,0.25,> 128,< 0.12,–
N#Cc1sc(NC(=O)Nc2ccc(Cl)c(Cl)c2)nc1N1CCOCC1,128,> 128,> 128,> 128,> 25,> 25,13,> 128,> 128,> 128,> 128,> 128,> 128,–
COC(=O)c1cnn(C)c1NC(=O)Nc1ccc(Cl)c(Cl)c1,–,–,–,–,–,–,–,–,–,–,–,–,–,MIC [25]: 4 µg/mL; MIC [26]: 4 µg/mL; MIC [27]: 4 µg/mL; MIC [28]: 4 µg/mL; IC50 [18]: 23 µg/mL; MIC [29]: 4 µg/mL; MIC [30]: 4 µg/mL; MIC [31]: 4 µg/mL; MIC [32]: 4 µg/mL; MIC [33]: 4 µg/mL; MIC [34]: 4 µg/mL
N#Cc1cnc(NC(=O)Nc2ccc(Cl)c(Cl)c2)s1,0.5,> 128,4,1,12.6,4.5,5.6,1,1,0.5,0.5,128,< 0.12,–
